The test system of assay [1] is HIV-1 89.6 infected 3D neurospheres. Briefly: RT-qPCR of viral RNA transcripts in infected 3D neurospheres. Type of assay: cell-based. The method, then: FIGS. 22A-22D are graphs, gels, schematics, and images showing cannabidiol lowers viral transcripts in 3D neurospheres. A) Differential workflow of 3D neurospheres. B) Phase contrast microscopic images of three 3D neurospheres taken where scale bar=100 um. D) 3D neurospheres were treated±89.6 viral strain±cART (10 μM; Tenofovir, Emtricitabine, Lamuvidine, and Indinavir)±CBD titration (5 and 10 μM) and incubated for 7 days. RNA was isolated from the 3D neurospheres and supernatants, followed by RT-qPCR analysis for viral RNA transcripts TAR, TAR-gag, env. Student's t-test was used for statistical analysis, where *p-value≤0.05; **p-value≤0.01, ***p-value≤0.001.
Neural Progenitor Cells (NPCs; Cat: ACS-5003; ATCC) were grown using STEMdiff™ Neural Progenitor Medium (STEMCELL Technologies™) and differentiated into 3D neurospheres (1×10^5 cells/well) using DMEM:F12 (Cat: 30-2006; ATCC)+Neural Progenitor Cell Dopaminergic Differentiation Kit (Cat: ACS-3004; ATCC) for an incubation period of 14 d. Inverted microscopy using Zen imaging software (Zeiss) was used to develop phase contrast images. Neurospheres were infected with HIV-1 89.6 dual-tropic strain (MOI: 10) and 10 μL of Infectin™ (Virongy, LLC) with a total volume of 200 μL, followed by 48 h incubation period. Neurospheres were then gently washed with 1×PBS±treated twice with 10 μM cocktail (Lamivudine, Tenofovir, Emtricitabine, Indinavir)±treatment (every other day) with a titration of CBD (5 and 10 μM) for a seven-day incubation period. Neurospheres were lysed in 100 μL lysis buffer and total lysates were run on a 4-20% Tris-Glycine SDS-PAGE, followed by western blot assessment. For RT-qPCR analysis, RNA was isolated from neurospheres, followed by RT-qPCR analysis.
Next, the levels of intracellular viral RNA transcripts were assessed to determine the effects of CBD treatment on HIV-1 infected neurospheres. Prior to these experiments, the expression of relevant receptors in neurospheres were confirmed including Cannabinoid receptors CB1 and CB2, as well as the serotonin receptor 5-HT1A and the Vanilloid receptor which have been previously found to bind cannabinoids (FIG. 24). We then performed RT-qPCR analysis to quantify the expression of TAR, gag, and env.

Assay [2] relates to RNA polymerase II (Pol II) loading. Briefly: Chromatin immunoprecipitation of Pol II, qPCR for TAR DNA. Type of assay: cell-based. As to conditions: U1; CBD 10 μM, Flavo 50 nM; 2-hour and 6-hour; FIG. 15C. As to the method: FIGS. 15A-15C are graphs and gels showing cannabidiols lower intracellular viral transcription and downstream viral products. U1 cells (1×10^6) were treated with a titration of CBD (1, 5, 10 μM) and THC (1, 5, 10 μg/mL) every day for 5 days. A) Intracellular RNA was isolated and analyzed through RT-qPCR for HIV-1 viral transcripts TAR and env. Each bar represents an average of three independent replicates. B) U1 cells (2×10^6) were treated with a titration of CBD (1, 5, 10 μM) every day for 5 days. Cells pellets were lysed, run through SDS-PAGE, and western blotted for (p-)/NF-κB, autophagosomal markers (p63, LC3), EV biogenesis marker VPS4, viral markers (gp120, Nef, p24), and Actin. C) U1 cells (5×10^6) were treated±CBD (10 μM) and Flavopiridol hydrochloride (50 nM; indicated as Flavo) and incubated for the following time points: 0 minutes, 2 hours and 6 hours. Cells were cross-linked with 1% formaldehyde solution and ChIP-ed for IgG and Pol II. ChIP DNA samples were analyzed via qPCR for TAR and env. Student's t-test was used for statistical analysis, where *p-value≤0.05; **p-value≤0.01, ***p-value≤0.001. […]
U1 monocytes were treated with CBD (10 μM) and Flavo (50 nM) for short periods (0, 2 and 6 hours) due to the fact that HIV-1 transcription activity is a rapid event that can be scored using chromatin immunoprecipitation (ChIP) assay for factor occupancy. […]
(Quantitative PCR measures a nucleic acid by following its amplification.)

Where [3] appears, read: CBD 10 μM with cART vs cART, 7 days, FIG. 22D lanes 3 vs 5.

This is an account of results in US12208080B2, “Compositions and methods for modulation of extracellular vesicle release and treatment of neurological disorders” (GEORGE MASON RESEARCH FOUNDATION, INC., priority 2018, dated 2025).

With `C=C(C)[C@@H]1CCC(C)=C[C@H]1c1c(O)cc(CCCCC)cc1O` [CBD, 2-[1R-3-methyl-6R-(1-methylethenyl)-2-cyclohexen-1-yl]-5-pentyl-1,3-benzenediol], in assay [1] (setting [3]), the “TAR RNA” value was “signification reduction”, the “env RNA” value was “signification reduction” and the “gag RNA” value is “signification reduction”. Moreover, the “altering viral transcripts in neurospheres” value in assay [1] (lower concentrated CBD treatment (5 μM)) was “low efficacy”. For the same compound, the “Pol II-associated TAR DNA versus untreated” value in assay [2] is “statistically significant decreases”.
